Test results as given in patent US9957271B2, “Substituted bicyclic aza-heterocycles and analogues as sirtuin modulators” (GlaxoSmithKline, LLC, priority 2012, dated 2018).

How the values were obtained:
[1] = molecular target: T1, SIRT1 (Homo sapiens, UniProt Q96EB6); experiment: TAMRA based mass spectrometry assay of SIRT1 activity; format: biochemical; details: for Emax: read-out: TAMRA % Fold Act
T1 sequence (Q96EB6 1-747): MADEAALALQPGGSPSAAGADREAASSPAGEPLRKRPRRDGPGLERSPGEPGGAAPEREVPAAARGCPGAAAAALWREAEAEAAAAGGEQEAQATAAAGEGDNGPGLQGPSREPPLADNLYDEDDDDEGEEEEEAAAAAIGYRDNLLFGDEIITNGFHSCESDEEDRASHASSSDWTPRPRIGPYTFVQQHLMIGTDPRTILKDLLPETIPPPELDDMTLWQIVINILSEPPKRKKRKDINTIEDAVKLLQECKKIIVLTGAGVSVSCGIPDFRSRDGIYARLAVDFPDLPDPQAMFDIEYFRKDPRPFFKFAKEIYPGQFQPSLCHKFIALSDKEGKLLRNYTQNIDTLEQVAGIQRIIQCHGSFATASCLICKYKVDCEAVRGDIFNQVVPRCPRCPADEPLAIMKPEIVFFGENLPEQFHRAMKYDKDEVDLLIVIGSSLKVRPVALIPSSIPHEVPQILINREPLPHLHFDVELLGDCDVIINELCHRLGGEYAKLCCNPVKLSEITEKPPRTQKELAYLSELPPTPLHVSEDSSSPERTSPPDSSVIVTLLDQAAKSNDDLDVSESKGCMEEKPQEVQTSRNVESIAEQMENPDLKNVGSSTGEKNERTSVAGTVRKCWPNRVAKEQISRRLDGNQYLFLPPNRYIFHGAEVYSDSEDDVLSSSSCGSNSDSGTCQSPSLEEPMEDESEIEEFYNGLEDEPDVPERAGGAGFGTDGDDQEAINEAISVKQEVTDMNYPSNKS
Method in brief: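 Deacetylation of a biotinylated, TAMRA-tagged p53-based peptide (0.5 μM) by 10 nM His-tagged SIRT1 with 120 μM βNAD+, 25 °C for 25 min, pH 8 Tris-acetate buffer, across a compound concentration range. Quenched by formic acid and read by mass spec as product peptide or OAADPR; activity relative to DMSO reactions, nicotinamide defining maximal inhibition.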

[2] = molecular target: T1, SIRT1; experiment: Trp mass spectrometry assay of SIRT1 activity; format: biochemical; details: for Emax: read-out: Trp % Fold Act
Method in brief: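 Activation readout: EC1.5 (concentration raising activity 50% over control) and percent maximum activation, from mass-spec quantitation of OAADPR or deacetylated Trp peptide. Reaction: 0.5 μM acetylated Trp peptide, 120 μM βNAD+, 10 nM bacterially expressed N-His SIRT1, pH 7.5 HEPES buffer with […], 25 min at 25° C.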

[3] = TAMRA assay, concentration giving 150% activation of SIRT1
[4] = TAMRA assay, percent maximum fold activation
[5] = Trp assay, concentration giving 150% activation of SIRT1
[6] = Trp assay, percent maximum fold activation
[7] = TAMRA peptide substrate, concentration giving 150% activation of SIRT1
[8] = TAMRA peptide substrate, percent maximum fold activation
[9] = Trp peptide substrate, concentration giving 150% activation of SIRT1
[10] = Trp peptide substrate, percent maximum fold activation

| SMILES | TAMRA EC1.5 (μM) [1, 3] | Emax [1, 4] [%] | Trp EC1.5 (μM) [2, 5] | Emax [2, 6] [%] | also measured |
| --- | --- | --- | --- | --- | --- |
| Cc1nc2c(C)cc(-c3ccccc3C(F)(F)F)nn2c1C(=O)Nc1ccncc1F [Compound 473] |  |  |  |  | TAMRA EC1.5 [1, 7]: A (EC1.5<1 μM); Emax [1, 8]: ≥ 350%; Trp EC1.5 [2, 9]: A (EC1.5<1 μM); Emax [2, 10]: ≥ 350% |
| O=C(Nc1cccc(N2CCOCC2)n1)c1cnc2ccc(N3CC[C@H](F)C3)nn12 [Compound 487, (S)-6-(3-fluoropyrrolidin-1-yl)-N-(6-morpholinopyridin-2-yl)imidazo[1,2-b]pyridazine-3-carboxamide] |  |  |  |  | TAMRA EC1.5 [1, 7]: B (EC1.5 1-25 μM); Emax [1, 8]: < 350%; Trp EC1.5 [2, 9]: A (EC1.5<1 μM); Emax [2, 10]: ≥ 350% |
| COc1ccc(NC(=O)c2c(C)nc3ccc(-c4cccc(F)c4)nn23)nn1 [Compound 761] | C (EC1.5>25 μM) | < 350 | A (EC1.5<1 μM) | < 350 |  |
| CCOc1ccc(NC(=O)c2cnn3ccc(-c4ccccc4OC(F)(F)F)nc23)nn1 [Compound 636] | A (EC1.5<1 μM) | ≥ 350 | B (EC1.5 1-25 μM) | < 350 |  |
| Cc1nc2ccc(-c3ccccc3Cl)nn2c1NC(=O)c1cccc(OCC(O)CO)n1 (centres unmarked) [Compound 357] | C (EC1.5>25 μM) | < 350 | C (EC1.5>25 μM) | < 350 |  |
| Cc1cc(NC(=O)c2cnc3ccc(-c4ccccc4OC[C@H](O)CO)nn23)nc(C)n1 [Compound 832] | A (EC1.5<1 μM) | ≥ 350 | B (EC1.5 1-25 μM) | < 350 |  |
| Cc1cccc(NC(=O)c2cnc3ccc(-c4ccccc4OC(F)(F)F)nn23)n1 [Compound 431] |  |  |  |  | TAMRA EC1.5 [1, 7]: A (EC1.5<1 μM); Emax [1, 8]: ≥ 350%; Trp EC1.5 [2, 9]: B (EC1.5 1-25 μM); Emax [2, 10]: < 350% |
| Cc1csc(NC(=O)c2cnn3ccc(-c4ccccc4C(F)(F)F)nc23)n1 [Compound 508] |  |  |  |  | TAMRA EC1.5 [1, 7]: A (EC1.5<1 μM); Emax [1, 8]: ≥ 350%; Trp EC1.5 [2, 9]: A (EC1.5<1 μM); Emax [2, 10]: ≥ 350% |
| O=C(Nc1ccnc(CN2CCOCC2)n1)c1cnc2ccc(-c3ccccc3C(F)F)nn12 [Compound 38] |  |  |  |  | TAMRA EC1.5 (μM) ([1]; concentration of test compound giving 150% activation of SIRT1, TAMRA peptide substrate): B (EC1.5 1-25 μM); Emax ([1]; percent maximum fold activation of SIRT1, TAMRA peptide substrate): < 350%; Trp EC1.5 (μM) ([2]; concentration of test compound giving 150% activation of SIRT1, Trp peptide substrate): C (EC1.5>25 μM); Emax ([2]; percent maximum fold activation of SIRT1, Trp peptide substrate): < 350% |
| Cc1cnc(NC(=O)c2cnn3ccc(-c4ccccc4OC(F)(F)F)nc23)s1 [Compound 603] | B (EC1.5 1-25 μM) | ≥ 350 | B (EC1.5 1-25 μM) | < 350 |  |

The next lines start with results.

| TAMRA EC1.5 (μM) [1, 3] | Emax [1, 4] [%] | Trp EC1.5 (μM) [2, 5] | Emax [2, 6] [%] | SMILES | also measured |
| --- | --- | --- | --- | --- | --- |
| A (EC1.5<1 μM) | ≥ 350 | A (EC1.5<1 μM) | ≥ 350 | CCOc1nccc(NC(=O)c2cnc3ccc(-c4ccccc4C(F)(F)F)nn23)n1 [Compound 600] |  |
| B (EC1.5 1-25 μM) | < 350 | B (EC1.5 1-25 μM) | < 350 | Cc1ccncc1NC(=O)c1cnn2ccc(-c3ccccc3C(F)(F)F)nc12 [Compound 640] |  |
| A (EC1.5<1 μM) | ≥ 350 | A (EC1.5<1 μM) | < 350 | O=C(Nc1cnc2ccc(-c3ccccc3Cl)nn12)c1cccc(N2CCC2)n1 [Compound 308] |  |
| A (EC1.5<1 μM) | ≥ 350 | C (EC1.5>25 μM) | < 350 | Cc1nc(C(=O)Nc2cnc3ccc(-c4ccccc4Cl)nn23)c(C)s1 [Compound 293] |  |
| B (EC1.5 1-25 μM) | < 350 | C (EC1.5>25 μM) | < 350 | Cc1ccc(C(=O)Nc2cnc3ccc(-c4ccccc4C(F)(F)F)nn23)cn1 [Compound 393] |  |
| A (EC1.5<1 μM) | ≥ 350 | B (EC1.5 1-25 μM) | < 350 | O=C(Nc1cnc2ccc(-c3ccccc3C(F)(F)F)nn12)c1cscn1 [Compound 218] |  |
| C (EC1.5>25 μM) | < 350 | C (EC1.5>25 μM) | < 350 | O=C(Nc1cnc2ccc(-c3ccccc3C(F)(F)F)nn12)c1ccnc(CN2CCCC2)c1 [Compound 214] |  |
